Laboratory results taken from paper PMC6268188, “Comparative Studies of the (Anti) Mutagenicity of Baccharis dracunculifolia and Artepillin C by the Bacterial Reverse Mutation Test” (Molecules, 2012).
Several values for one entry are separate records, joined by “and”; a condition that tells them apart may be missing. Equal entries are not always repeated. Where two headings read alike, the source gives them in different places.

Legend:
S. typhimurium TA98 = test: Antimutagenicity assay (Ames test with known mutagens), strain TA98; assay type: cell-based, Salmonella typhimurium
S. typhimurium TA102 [1] = test: Antimutagenicity assay (Ames test with known mutagens), strain TA102; assay type: cell-based, Salmonella typhimurium
S. typhimurium TA102 [2] = system: S. typhimurium TA102
S. typhimurium TA97a = details: 0.69 µg/plate
[3] = 0.69 µg/plate + B[a]P 1.0 μg/plate, TA 98, + S9
[4] = 0.69 µg/plate + NOPD 10.0 μg/plate, TA 98, − S9
[5] = 1.37 µg/plate + B[a]P 1.0 μg/plate, TA 98, + S9
[6] = 1.37 µg/plate + NOPD 10.0 μg/plate, TA 98, − S9
[7] = 2.75 µg/plate + B[a]P 1.0 μg/plate, TA 98, + S9
[8] = 2.75 µg/plate + NOPD 10.0 μg/plate, TA 98, − S9
[9] = 5.49 µg/plate + B[a]P 1.0 μg/plate, TA 98, + S9
[10] = 5.49 µg/plate + NOPD 10.0 μg/plate, TA 98, − S9
[11] = […] + B[a]P 1.0 μg/plate, TA 98, + S9
[12] = […] + NOPD 10.0 μg/plate, TA 98, − S9
[13] = 0.69 µg/plate + AF 10.0 μg/plate, TA 102, + S9
[14] = 1.37 µg/plate + AF 10.0 μg/plate, TA 102, + S9
[15] = 1.37 µg/plate + MMC 0.5 μg/plate, TA 102, − S9
[16] = 2.75 µg/plate + AF 10.0 μg/plate, TA 102, + S9
[17] = 2.75 µg/plate + MMC 0.5 μg/plate, TA 102, − S9
[18] = 5.49 µg/plate + AF 10.0 μg/plate, TA 102, + S9
[19] = 5.49 µg/plate + MMC 0.5 μg/plate, TA 102, − S9
[20] = […] + AF 10.0 μg/plate, TA 102, + S9
[21] = […] + MMC 0.5 μg/plate, TA 102, − S9

CC(C)=CCc1cc(/C=C/C(=O)O)cc(CC=C(C)C)c1O [ArtC, 3-{4-hydroxy-3,5-di(3-methyl-2-butenyl)phenyl}-2(E)-propenoic acid]
% inhibition (S. typhimurium TA98; [3]): 38%
antimutagenic effect class (S. typhimurium TA98; [3]): ** (moderate effect (25% - 40% inhibition))
% inhibition (S. typhimurium TA98; [4]): 37%
Number of revertants (M ± SD)/ plate (S. typhimurium TA98; [4]): 526 ± 12 revertants/plate
antimutagenic effect class (S. typhimurium TA98; [4]): ** (moderate effect (25% - 40% inhibition))
% inhibition (S. typhimurium TA98; [5]): 43%
antimutagenic effect class (S. typhimurium TA98; [5]): *** (strong antimutagenic effect (> 40% inhibition))
% inhibition (S. typhimurium TA98; [6]): 38%
Number of revertants (M ± SD)/ plate (S. typhimurium TA98; [6]): 520 ± 18 revertants/plate
antimutagenic effect class (S. typhimurium TA98; [6]): ** (moderate effect (25% - 40% inhibition))
% inhibition (S. typhimurium TA98; [7]): 56%
antimutagenic effect class (S. typhimurium TA98; [7]): *** (strong antimutagenic effect (> 40% inhibition))
% inhibition (S. typhimurium TA98; [8]): 42%
Number of revertants (M ± SD)/ plate (S. typhimurium TA98; [8]): 484 ± 31 revertants/plate
antimutagenic effect class (S. typhimurium TA98; [8]): *** (strong antimutagenic effect (> 40% inhibition))
% inhibition (S. typhimurium TA98; [9]): 56%
antimutagenic effect class (S. typhimurium TA98; [9]): *** (strong antimutagenic effect (> 40% inhibition))
% inhibition (S. typhimurium TA98; [10]): 37%
Number of revertants (M ± SD)/ plate (S. typhimurium TA98; [10]): 532 ± 27 revertants/plate
antimutagenic effect class (S. typhimurium TA98; [10]): ** (moderate effect (25% - 40% inhibition))
% inhibition (S. typhimurium TA98; [11]): 62%
antimutagenic effect class (S. typhimurium TA98; [11]): *** (strong antimutagenic effect (> 40% inhibition))
% inhibition (S. typhimurium TA98; [12]): 41%
antimutagenic effect class (S. typhimurium TA98; [12]): *** (strong antimutagenic effect (> 40% inhibition))
Number of revertants (M ± SD)/ plate (S. typhimurium TA102 [1]): 879 ± 11 revertants/plate and 529 ± 20 revertants/plate
% inhibition (S. typhimurium TA102 [1]; [13]): 41%
Number of revertants (M ± SD)/ plate (S. typhimurium TA102 [1]; [13]): 645 ± 23 revertants/plate
antimutagenic effect class (S. typhimurium TA102 [1]; [13]): *** (strong antimutagenic effect (> 40% inhibition))
Number of revertants (M ± SD)/ plate (S. typhimurium TA102 [1]; 0.69 µg/plate + MMC 0.5 μg/plate, TA 102, − S9): 1096 ± 19 revertants/plate
% inhibition (S. typhimurium TA102 [1]; [14]): 46%
Number of revertants (M ± SD)/ plate (S. typhimurium TA102 [1]; [14]): 595 ± 25 revertants/plate
antimutagenic effect class (S. typhimurium TA102 [1]; [14]): *** (strong antimutagenic effect (> 40% inhibition))
% inhibition (S. typhimurium TA102 [1]; [15]): 5%
Number of revertants (M ± SD)/ plate (S. typhimurium TA102 [1]; [15]): 1022 ± 18 revertants/plate
antimutagenic effect class (S. typhimurium TA102 [1]; [15]): * (no antimutagenic effect (< 25% inhibition))
% inhibition (S. typhimurium TA102 [1]; [16]): 48%
Number of revertants (M ± SD)/ plate (S. typhimurium TA102 [1]; [16]): 566 ± 17 revertants/plate
antimutagenic effect class (S. typhimurium TA102 [1]; [16]): *** (strong antimutagenic effect (> 40% inhibition))
% inhibition (S. typhimurium TA102 [1]; [17]): 7%
Number of revertants (M ± SD)/ plate (S. typhimurium TA102 [1]; [17]): 994 ± 25 revertants/plate
antimutagenic effect class (S. typhimurium TA102 [1]; [17]): * (no antimutagenic effect (< 25% inhibition))
% inhibition (S. typhimurium TA102 [1]; [18]): 56%
Number of revertants (M ± SD)/ plate (S. typhimurium TA102 [1]; [18]): 488 ± 14 revertants/plate
antimutagenic effect class (S. typhimurium TA102 [1]; [18]): *** (strong antimutagenic effect (> 40% inhibition))
% inhibition (S. typhimurium TA102 [1]; [19]): 12%
Number of revertants (M ± SD)/ plate (S. typhimurium TA102 [1]; [19]): 943 ± 17 revertants/plate
antimutagenic effect class (S. typhimurium TA102 [1]; [19]): * (no antimutagenic effect (< 25% inhibition))
effect on MMC-induced mutagenicity (S. typhimurium TA102 [1]; TA102, MMC): did not affect
% inhibition (S. typhimurium TA102 [1]; [20]): 52%
antimutagenic effect class (S. typhimurium TA102 [1]; [20]): *** (strong antimutagenic effect (> 40% inhibition))
% inhibition (S. typhimurium TA102 [1]; [21]): 18%
antimutagenic effect class (S. typhimurium TA102 [1]; [21]): * (no antimutagenic effect (< 25% inhibition))
MI (mutagenicity index) (S. typhimurium TA102 [2]; 0.69 µg/plate, TA 102, + S9): 0.9
Number of revertants (M ± SD)/ plate (S. typhimurium TA102 [2]; 0.69 µg/plate, TA 102, + S9): 204 ± 4 revertants/plate
MI (mutagenicity index) (S. typhimurium TA102 [2]; 0.69 µg/plate, TA 102, − S9): 0.9
Number of revertants (M ± SD)/ plate (S. typhimurium TA102 [2]; 0.69 µg/plate, TA 102, − S9): 204 ± 4 revertants/plate
MI (mutagenicity index) (S. typhimurium TA102 [2]; 1.37 µg/plate, TA 102, + S9): 1.0
Number of revertants (M ± SD)/ plate (S. typhimurium TA102 [2]; 1.37 µg/plate, TA 102, + S9): 213 ± 3 revertants/plate
MI (mutagenicity index) (S. typhimurium TA102 [2]; 1.37 µg/plate, TA 102, − S9): 1.0
Number of revertants (M ± SD)/ plate (S. typhimurium TA102 [2]; 1.37 µg/plate, TA 102, − S9): 213 ± 3 revertants/plate
MI (mutagenicity index) (S. typhimurium TA102 [2]; 2.75 µg/plate, TA 102, + S9): 0.9
Number of revertants (M ± SD)/ plate (S. typhimurium TA102 [2]; 2.75 µg/plate, TA 102, + S9): 187 ± 5 revertants/plate
MI (mutagenicity index) (S. typhimurium TA102 [2]; 2.75 µg/plate, TA 102, − S9): 0.9
Number of revertants (M ± SD)/ plate (S. typhimurium TA102 [2]; 2.75 µg/plate, TA 102, − S9): 187 ± 5 revertants/plate
MI (mutagenicity index) (S. typhimurium TA102 [2]; 5.49 µg/plate, TA 102, + S9): 1.0
Number of revertants (M ± SD)/ plate (S. typhimurium TA102 [2]; 5.49 µg/plate, TA 102, + S9): 215 ± 5 revertants/plate
MI (mutagenicity index) (S. typhimurium TA102 [2]; 5.49 µg/plate, TA 102, − S9): 1.0
Number of revertants (M ± SD)/ plate (S. typhimurium TA102 [2]; 5.49 µg/plate, TA 102, − S9): 215 ± 5 revertants/plate
MI (mutagenicity index) (S. typhimurium TA102 [2]; Salmonella typhimurium): 203 ± 6 (0.9)
Number of revertants (M ± SD)/ plate (S. typhimurium TA102 [2]; Salmonella typhimurium): 203 ± 6 (0.9) revertants/plate
MI (mutagenicity index) (S. typhimurium TA97a; TA 97, + S9): 1.2
Number of revertants (M ± SD)/ plate (S. typhimurium TA97a; TA 97, + S9): 194 ± 3 revertants/plate
MI (mutagenicity index) (S. typhimurium TA97a; TA 97, − S9): 1.4
